The results in this text go back to ChEMBL document CHEMBL5329160, “Design, synthesis, and mechanistic study of 2-piperazineone-bearing peptidomimetics as novel HIV capsid modulators” (RSC Med Chem, 2023).

Series [1] has as its system Human immunodeficiency virus 1. The series is described as follows: Antiviral activity against HIV-1 IIIB infected in MT4 cells assessed as protection against virus induced cytotoxicity incubated for 5 days by MTT assay. It is filed as functional, organism-based. The settings on record: Human immunodeficiency virus 1, IIIB, MT4, 120 h. In general terms: Formazan colour is commonly taken as a measure of viable cells.

For series [2], the system named is Human immunodeficiency virus 2. The series is described as follows: Antiviral activity against HIV-2 ROD infected in MT4 cells assessed as protection against virus induced cytotoxicity and measured after 5 days by MTT spectrophotometric assay. Format: functional, organism-based. The settings on record: Human immunodeficiency virus 2, ROD, MT4, 120 h.
Series [3] can be described thus: Cytotoxicity against human MT4 cells assessed as reduction in cell viability after 5 days by MTT assay. Conditions: time 5 day. Format: toxicity, cell-based.
Series [4] can be described thus: Selectivity index, ratio of CC50 for human MT4 cells to EC50 for HIV-1 IIIB infected in human MT4 cells. It is filed as toxicity, cell-based. Conditions: read-out: Ratio CC50/EC50.
The nature of series [5]: Selectivity index, ratio of CC50 for human MT4 cells to EC50 for HIV-2 ROD infected in human MT4 cells. It is filed as toxicity, cell-based. The settings on record: read-out: Ratio CC50/EC50.

SMILES strings stand for the structures.

What is called EC50 is the concentration giving half of the maximal effect. As usually defined, the CC50 is the concentration giving 50% cytotoxicity. On to `COc1ccc(C(=O)N2CCN(CC(=O)N[C@@H](Cc3ccccc3)C(=O)N(C)c3ccc(OC)cc3)C(=O)C2)cc1`, for which the EC50 in series [1] was 26 µM; in series [2], 21 µM. Further, in series [3], the cytotoxic concentration (CC50) at 120 h turned out to be 110 µM. For the same compound, the selectivity ratio in series [4] is 4.2; in series [5], 5.2.
Turning to `COc1ccc(N(C)C(=O)[C@H](Cc2cc(F)cc(F)c2)NC(=O)CN2CCN(C(=O)c3cccc(F)c3)CC2=O)cc1`, the EC50 is 25 µM in series [1] and 13 µM in series [2]. Further, the half-maximal cytotoxic concentration (CC50) at 120 h in series [3] amounted to 99 µM. For the same compound, the figures for the selectivity ratio in series [4] and in series [5] were 4 and 7.6, respectively.
On to `COc1ccc(N(C)C(=O)[C@H](Cc2cc(F)cc(F)c2)NC(=O)CN2CCN(C(=O)c3ccccc3N)CC2=O)cc1`, for which the EC50 amounted to 18 µM in series [1] and 8.6 µM in series [2]. In series [3], the half-maximal cytotoxic concentration (CC50) at 120 h is 160 µM. Also, the selectivity ratio was 8.9 in series [4] and 19 in series [5].
For `COc1ccc(N(C)C(=O)[C@H](Cc2ccccc2)NC(=O)CN2CCN(C(=O)c3cccc(C(F)(F)F)c3)CC2=O)cc1` the same measures were above 6.7 µM, above 6.7 µM, 6.7 µM, below 1 and below 1.
Take `COc1ccc(N(C)C(=O)[C@H](Cc2cc(F)cc(F)c2)NC(=O)CN2CCN(C(=O)c3ccc(Br)cc3)CC2=O)cc1`: the EC50 in series [1] and in series [2] was above 19 µM in each case. Also, the CC50 at 120 h in series [3] came out at 19 µM. In addition, the selectivity ratio in series [4] and in series [5] was below 1 each time.
In the case of `COc1ccc(N(C)C(=O)[C@H](Cc2cc(F)cc(F)c2)NC(=O)CN2CCN(C(=O)c3ccc(F)cc3)CC2=O)cc1`, the EC50 was determined as 20 µM in series [1] and 21 µM in series [2]. For the same compound, the CC50 at 120 h in series [3] turned out to be 77 µM. For the same compound, the figures for the selectivity ratio in series [4] and in series [5] were 3.8 and 3.7, respectively.
On to `COc1ccc(N(C)C(=O)[C@H](Cc2cc(F)cc(F)c2)NC(=O)CN2CCN(C(=O)c3ccccc3)CC2=O)cc1`, for which the figures for the EC50 in series [1] and in series [2] were 25 µM and 12 µM, respectively. In series [3], the CC50 at 120 h turned out to be 110 µM. In addition, the selectivity ratio in series [4] came out at 4.4.
As for `COc1ccc(N(C)C(=O)[C@H](Cc2ccccc2)NC(=O)CN2CCN(C(=O)c3cccc([N+](=O)[O-])c3)CC2=O)cc1`, the EC50 in series [1] and in series [2] was above 24 µM throughout. Further, the CC50 at 120 h in series [3] was determined as 24 µM. The selectivity ratio in series [4] and in series [5] was below 1 each time.
As for `COc1ccc(N(C)C(=O)[C@H](Cc2ccccc2)NC(=O)CN2CCN(C(=O)c3ccc(C(F)(F)F)cc3)CC2=O)cc1`, the EC50 in series [1] was at least 37 µM; in series [2] it was at least 41 µM. In addition, the CC50 at 120 h in series [3] was 42 µM.
With `COc1ccc(N(C)C(=O)[C@H](Cc2ccccc2)NC(=O)CN2CCN(C(=O)c3ccccc3)CC2=O)cc1`, the EC50 is 28 µM in series [1] and 3.6 µM in series [2]. In addition, in series [3], the CC50 at 120 h is above 240 µM. In addition, the selectivity ratio was above 8.6 in series [4] and above 67 in series [5].
For `COc1ccc(N(C)C(=O)[C@H](Cc2ccccc2)NC(=O)CN2CCN(C(=O)c3ccc([N+](=O)[O-])cc3)CC2=O)cc1` the same measures were above 16 µM, above 16 µM, 16 µM, below 1 and below 1.
Turning to `COc1ccc(N(C)C(=O)[C@H](Cc2ccccc2)NC(=O)CN2CCN(C(=O)c3ccc(Br)cc3)CC2=O)cc1`, the concentration giving a half-maximal response (EC50) in series [1] and in series [2] was above 11 µM each time. Further, in series [3], the half-maximal cytotoxic concentration (CC50) at 120 h amounted to 11 µM. Moreover, the selectivity ratio in series [4] and in series [5] was below 1 in each case.
Turning to `COc1ccc(N(C)C(=O)[C@H](Cc2cc(F)cc(F)c2)NC(=O)CN2CCN(C(=O)c3ccccc3F)CC2=O)cc1`, the EC50 in series [1] amounted to 22 µM; in series [2] it was 5.3 µM. In series [3], the half-maximal cytotoxic concentration (CC50) at 120 h came to 140 µM. Moreover, the selectivity ratio worked out at 6.4 in series [4] and 26 in series [5].
As for `COc1ccc(C(=O)N2CCN(CC(=O)N[C@@H](Cc3cc(F)cc(F)c3)C(=O)N(C)c3ccc(OC)cc3)C(=O)C2)cc1`, the EC50 in series [1] was 24 µM; in series [2] it was 31 µM. Moreover, the CC50 at 120 h in series [3] was 96 µM. Besides, the selectivity ratio worked out at 4 in series [4] and 3.1 in series [5].
As to `COc1ccc(N(C)C(=O)[C@H](Cc2cc(F)cc(F)c2)NC(=O)CN2CCN(C(=O)c3ccc(N)cc3)CC2=O)cc1`, the EC50 amounted to 18 µM in series [1] and 32 µM in series [2]. Moreover, the CC50 at 120 h in series [3] was above 220 µM. Moreover, the values for the selectivity ratio in series [4] and in series [5] were above 12 and above 6.9, respectively.
Take `COc1ccc(N(C)C(=O)[C@H](Cc2cc(F)cc(F)c2)NC(=O)CN2CCN(C(=O)c3cccc([N+](=O)[O-])c3)CC2=O)cc1`: the EC50 is 34 µM in series [1] and above 47 µM in series [2]. The CC50 at 120 h in series [3] stood at 47 µM. Further, the selectivity ratio is 1.4 in series [4] and below 1 in series [5].
In the case of `COC(=O)c1ccc(C(=O)N2CCN(CC(=O)N[C@@H](Cc3ccccc3)C(=O)N(C)c3ccc(OC)cc3)C(=O)C2)cc1`, the 50% effective concentration (EC50) in series [1] is above 190 µM; in series [2] it was 24 µM. The CC50 at 120 h in series [3] worked out at 200 µM. In addition, the selectivity ratio in series [4] is below 1; in series [5], 8.3.
In the case of `COc1ccc(N(C)C(=O)[C@H](Cc2ccccc2)NC(=O)CN2CCN(C(=O)c3ccc(N)cc3)CC2=O)cc1`, the EC50 turned out to be 21 µM in series [1] and 28 µM in series [2]. For the same compound, the CC50 at 120 h in series [3] is above 230 µM. Also, the selectivity ratio in series [4] was above 11; in series [5] it was above 8.2.
With `COc1ccc(N(C)C(=O)[C@H](Cc2ccccc2)NC(=O)CN2CCN(C(=O)c3cccc(N)c3)CC2=O)cc1`, the figures for the EC50 in series [1] and in series [2] were at least 200 µM and 27 µM, respectively. Also, the CC50 at 120 h in series [3] was above 230 µM. Besides, the selectivity ratio in series [4] was at least 1; in series [5] it was above 8.5.
`COc1ccc(N(C)C(=O)[C@H](Cc2cc(F)cc(F)c2)NC(=O)CN2CCN(C(=O)c3cccc(N)c3)CC2=O)cc1`: the EC50 in series [1] stood at 23 µM; in series [2] it was 16 µM. Besides, the CC50 at 120 h in series [3] is above 220 µM. Besides, the results for the selectivity ratio in series [4] and in series [5] were above 10 and above 14, respectively.
As to `COc1ccc(N(C)C(=O)[C@H](Cc2ccccc2)NC(=O)CN2CCN(C(=O)c3cccc(F)c3)CC2=O)cc1`, the EC50 is 23 µM in series [1] and 4.6 µM in series [2]. Also, in series [3], the CC50 at 120 h is above 230 µM. The figures for the selectivity ratio in series [4] and in series [5] were above 10 and above 50, respectively.
As to `COc1ccc(N(C)C(=O)[C@H](Cc2ccccc2)NC(=O)CN2CCN(C(=O)c3ccccc3N)CC2=O)cc1`, the EC50 in series [1] turned out to be 23 µM; in series [2], 5.4 µM. In series [3], the CC50 at 120 h was 160 µM. Besides, the selectivity ratio in series [4] came out at 7; in series [5], 30.
Consider `COc1ccc(N(C)C(=O)[C@H](Cc2ccccc2)NC(=O)CN2CCN(C(=O)c3ccc(C)cc3)CC2=O)cc1`, for which the EC50 in series [1] came out at 33 µM; in series [2], 9.2 µM. The CC50 at 120 h in series [3] was 64 µM. Further, the selectivity ratio was 1.9 in series [4] and 7 in series [5].
Regarding `COc1ccc(N(C)C(=O)[C@H](Cc2cc(F)cc(F)c2)NC(=O)CN2CCN(C(=O)c3ccc(C)cc3)CC2=O)cc1`, the EC50 in series [1] was 32 µM; in series [2] it was 35 µM. In addition, the CC50 at 120 h in series [3] was determined as 74 µM. In addition, the selectivity ratio is 2.3 in series [4] and 2.1 in series [5].
For the compound `COC(=O)c1ccc(C(=O)N2CCN(CC(=O)N[C@@H](Cc3cc(F)cc(F)c3)C(=O)N(C)c3ccc(OC)cc3)C(=O)C2)cc1`, the EC50 in series [1] turned out to be 18 µM; in series [2], 26 µM. Further, in series [3], the CC50 at 120 h was determined as 120 µM. Also, the results for the selectivity ratio in series [4] and in series [5] were 6.7 and 4.6, respectively.
As to `COc1ccc(N(C)C(=O)[C@H](Cc2ccccc2)NC(=O)CN2CCN(C(=O)c3ccccc3F)CC2=O)cc1`, the figures for the half-maximal effective concentration (EC50) in series [1] and in series [2] were 24 µM and 7.8 µM, respectively. In addition, the CC50 at 120 h in series [3] was determined as 140 µM. Moreover, the values for the selectivity ratio in series [4] and in series [5] were 5.8 and 18, respectively.
As to `COc1ccc(N(C)C(=O)[C@H](Cc2ccccc2)NC(=O)CN2CCN(C(=O)c3ccccc3C(F)(F)F)CC2=O)cc1`, the values for the half-maximal effective concentration (EC50) in series [1] and in series [2] were 21 µM and 2.9 µM, respectively. Further, the CC50 at 120 h in series [3] turned out to be 130 µM. For the same compound, the figures for the selectivity ratio in series [4] and in series [5] were 6.2 and 45, respectively.
For `COc1ccc(N(C)C(=O)[C@H](Cc2cc(F)cc(F)c2)NC(=O)CN2CCN(C(=O)c3ccc([N+](=O)[O-])cc3)CC2=O)cc1` the same measures were above 18 µM, above 18 µM, 18 µM, below 1 and below 1.
As to `COc1ccc(N(C)C(=O)[C@H](Cc2cc(F)cc(F)c2)NC(=O)CN2CCN(C(=O)c3ccc(C(F)(F)F)cc3)CC2=O)cc1`, the EC50 in series [1] and in series [2] was above 18 µM in each case. In series [3], the CC50 at 120 h worked out at 18 µM. The selectivity ratio in series [4] and in series [5] was below 1 each time.
As to `COc1ccc(N(C)C(=O)[C@H](Cc2cc(F)cc(F)c2)NC(=O)CN2CCN(C(=O)c3ccc(Cl)cc3)CC2=O)cc1`, the EC50 in series [1] and in series [2] was above 19 µM each time. The CC50 at 120 h in series [3] turned out to be 19 µM. For the same compound, the selectivity ratio in series [4] and in series [5] was below 1 throughout.
As for `COc1ccc(N(C)C(=O)[C@H](Cc2cc(F)cc(F)c2)NC(=O)CN2CCN(C(=O)c3cccc(C(F)(F)F)c3)CC2=O)cc1`, the EC50 in series [1] and in series [2] was above 3.7 µM each time. In addition, in series [3], the CC50 at 120 h came to 3.7 µM. Further, the selectivity ratio in series [4] and in series [5] was below 1 throughout.
